Measured values published in patent publication US5703087A, “Phenyl indole compounds” (H. Lundbeck A/S, priority 1993, dated 1997).
Counter-ions that a name gives are not always drawn. Like-named read-outs stand apart in the source and are kept apart here.

Legend:
[1] = Catalepsy in rats (vertical wire mesh); details: rat, in vivo, 1-6 hours, sc
Procedure: Evaluation of catalepsy is made according to Arnt (Eur. J. Pharmacol. 90, 47-55 (1983)). Test compound is given s.c. in different doses. The rat (170-240 g) is placed on a vertical wire mesh (mesh diameter 12 mm). The rat is considered cataleptogenic if it remains immobile for more than 15 sec. The maximum number of rats showing catalepsy within the first 6 hours is recorded for each dose group. The results are recorded in fractions and an ED50 value is calculated by means of log-probit analysis.

dopamine D2 receptors = molecular target: T1, dopamine D2 receptors (Rattus norvegicus, UniProt P61169); experiment: Inhibition of 3H-Spiperone binding to dopamine D2 receptors in rat corpus striatum in vitro; details: 0.5 nM 3H-spiperone, rat corpus striatum membranes, read-out: Dopamine D2 binding [^3 H]-spiroperidol
T1 construct: dopamine D2 receptors in membranes from rat corpus striatum; from tissue; host or cells: rat corpus striatum membranes
Procedure: Inhibition of ^3 H-Spiperone Binding to Dopamine D2 Receptors in Rat Corpus Striatum in vitro
By this method the inhibition by drugs of the binding of ^3 H-spiperone (0.5 nM) to dopamine D2 receptors in membranes from rat corpus striatum is determined in vitro.

5-HT2 receptors = molecular target: T2, 5-HT2 receptors (Rattus norvegicus, UniProt P14842); experiment: Inhibition of 3H-Ketanserin binding to 5-HT2 receptors in membranes from rat cortex in vitro; details: 0,5 nM 3H-ketanserin
T2 construct: 5-HT2 receptors in membranes from rat; from tissue; host or cells: rat cortex membranes
Procedure: Inhibition of ^3 H-Ketanserin Binding To 5-HT2 Receptors in […] Cortex in vitro
By this method the inhibition by drugs of the binding of ^3 H-Ketanserin (0,5 nM) to 5-HT2 receptors in membranes from rat is determined in vitro. The method is described in Hyttel, Pharmacology & Toxicology 61, 126-129, 1987.

5-HT2 = experiment: Quipazine inhibition (quipazine induced head twitches in rats); assay type: in vivo; details: Rattus norvegicus
Text: Quipazine is a 5-HT2 agonist, which induces head twitches in rats.

[2] = in vivo; cited from earlier work
[3] = po, 24 h, read-out: Quipazine inhibition 24 hours (po) ED50
[4] = sc, 2 h, read-out: Quipazine inhibition 2 hours (sc) ED50
[5] = rats, 2 hours, sc, read-out: Quipazine inhibition 2 hours (sc) ED50
[6] = rats, 24 hours, po, read-out: Quipazine inhibition 24 hours (po) ED50

T2 sequence (P14842 whole entry): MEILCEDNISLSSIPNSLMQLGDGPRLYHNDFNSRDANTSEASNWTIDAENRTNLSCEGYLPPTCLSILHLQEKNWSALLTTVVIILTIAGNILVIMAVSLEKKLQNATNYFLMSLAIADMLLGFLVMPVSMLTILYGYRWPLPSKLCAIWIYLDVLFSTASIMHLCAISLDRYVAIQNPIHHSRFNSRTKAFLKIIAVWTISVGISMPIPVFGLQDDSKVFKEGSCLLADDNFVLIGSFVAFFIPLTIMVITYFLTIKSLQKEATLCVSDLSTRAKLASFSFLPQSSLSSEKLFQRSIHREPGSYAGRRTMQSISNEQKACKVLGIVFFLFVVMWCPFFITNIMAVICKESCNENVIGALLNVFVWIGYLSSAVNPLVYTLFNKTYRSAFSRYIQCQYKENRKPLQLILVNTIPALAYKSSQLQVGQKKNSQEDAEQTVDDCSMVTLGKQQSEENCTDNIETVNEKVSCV
T1 sequence (P61169 whole entry): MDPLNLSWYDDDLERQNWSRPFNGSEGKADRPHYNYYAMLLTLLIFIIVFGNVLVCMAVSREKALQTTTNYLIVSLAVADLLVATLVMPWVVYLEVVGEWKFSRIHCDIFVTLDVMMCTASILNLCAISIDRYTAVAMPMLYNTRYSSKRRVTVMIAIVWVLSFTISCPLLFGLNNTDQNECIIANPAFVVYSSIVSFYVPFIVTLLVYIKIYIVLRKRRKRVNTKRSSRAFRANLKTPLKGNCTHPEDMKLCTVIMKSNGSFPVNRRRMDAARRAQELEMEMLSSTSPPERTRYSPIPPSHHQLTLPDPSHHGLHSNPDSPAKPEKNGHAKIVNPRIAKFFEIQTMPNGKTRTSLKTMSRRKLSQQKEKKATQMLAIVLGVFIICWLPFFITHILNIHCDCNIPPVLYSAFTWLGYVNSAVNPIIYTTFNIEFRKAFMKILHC

O=C1NCC(O)N1CCN1CCC(c2cn(-c3ccc(F)cc3)c3ccc(Cl)cc23)CC1 (centres unmarked) [Compound 1, 1-[2-[4-[5-chloro-1-(4-fluorophenyl)-1H-indol-3-yl]piperidin-1-yl]ethyl]-5-hydroxyimidazolidin-2-one]
ED50 at 6 h [1]: 39 µmol/kg
IC50 (dopamine D2 receptors): 5.5 nM
IC50 (5-HT2 receptors): 1.4 nM
ED50 (5-HT2; [3]): 0.085 µmol/kg
ED50 (5-HT2; [4]): 0.099 µmol/kg

COC1CNC(=O)N1CCN1CCC(c2cn(-c3ccc(F)cc3)c3ccc(Cl)cc23)CC1 (centres unmarked) [Compound 3, 1-[2-[4-[5-chloro-1-(4-fluorophenyl)-1H-indol-3-yl]piperidin-1-yl]ethyl]-5-methoxyimidazolidin-2-one, fumarate]
ED50 at 6 h [1]: 17 µmol/kg
IC50 (dopamine D2 receptors): 13 nM
IC50 (5-HT2 receptors): 1.5 nM

[2H]C1([2H])NC(=O)N(CCN2CCC(c3cn(-c4ccc(F)cc4)c4ccc(Cl)cc34)CC2)C1([2H])[2H] [Compound 4, 1-[2-[4-[5-Chloro-1-(4-fluorophenyl)-1H-indol-3-yl]piperidin-1-yl]ethyl]-4,4,5,5-tetradeuteroimidazolidin-2-one]
ED50 at 6 h [1]: > 45 µmol/kg
ED50 (5-HT2; [5]): 0.07 µmol/kg
ED50 (5-HT2; [6]): < 0.0056 µmol/kg

[2H]C1([2H])CN(CCN2CCC(c3cn(-c4ccc(F)cc4)c4ccc(Cl)cc34)CC2)C(=O)N1 [Compound 5, 1-[2-[4-[5-Chloro-1-(4-fluorophenyl)-1H-indol-3-yl]piperidin-1-yl]ethyl]-4,4-dideuteroimidazolidin-2-one]
ED50 at 6 h [1]: > 45 µmol/kg
ED50 (5-HT2; [5]): 0.055 µmol/kg
ED50 (5-HT2; [6]): 0.0097 µmol/kg

[2H]C1([2H])CNC(=O)N1CCN1CCC(c2cn(-c3ccc(F)cc3)c3ccc(Cl)cc23)CC1 [Compound 6, 1-[2-[4-[5-Chloro-1-(4-fluorophenyl)-1H-indol-3-yl]piperidin-1-yl]ethyl]-5,5-dideuteroimidazolidin-2-one]
ED50 at 6 h [1]: 30 µmol/kg
ED50 (5-HT2; [5]): 0.02 µmol/kg
ED50 (5-HT2; [6]): 0.012 µmol/kg

O=C1NC(O)C(=O)N1CCN1CCC(c2cn(-c3ccc(F)cc3)c3ccc(Cl)cc23)CC1 (centres unmarked) [Compound 7a, 1-[2-[4-[5-Chloro-1-(4-fluorophenyl)-1H-indol-3-yl]piperidin-1-yl]ethyl]-4-hydroxyimidazolidin-2,5-dione]
ED50 at 6 h [1]: > 42 µmol/kg
IC50 (dopamine D2 receptors): 18 nM
IC50 (5-HT2 receptors): 6.6 nM

O=C1NC(=O)N(CCN2CCC(c3cn(-c4ccc(F)cc4)c4ccc(Cl)cc34)CC2)C1O (centres unmarked) [Compound 7b, 1-[2-[4-[5-chloro-1-(4-fluorophenyl)-1H-indol-3-yl]piperidin-1-yl]ethyl]-5-hydroxyimidazolidin-2,4-dione]
ED50 at 6 h [1]: > 21 µmol/kg
IC50 (dopamine D2 receptors): 23 nM
IC50 (5-HT2 receptors): 9.8 nM

CC1(C)CN(CCN2CCC(c3cn(-c4ccc(F)cc4)c4ccc(Cl)cc34)CC2)C(=O)N1 [Compound 8, 1-[2-[4-[5-Chloro-1-(4-fluorophenyl)-1H-indol-3-yl]piperidin-1-yl]ethyl]-4,4-dimethylimidazolidin-2-one]
ED50 at 6 h [1]: > 43 µmol/kg
IC50 (dopamine D2 receptors): 18 nM
IC50 (5-HT2 receptors): 2 nM
ED50 (5-HT2; [3]): 0.013 µmol/kg
ED50 (5-HT2; [4]): 0.035 µmol/kg

CC1(C)CNC(=O)N1CCN1CCC(c2cn(-c3ccc(F)cc3)c3ccc(Cl)cc23)CC1 [Compound 9, 1-[2-[4-[5-Chloro-1-(4-fluorophenyl)-1H-indol-3-yl]piperidin-1-yl]ethyl]-5,5-dimethylimidazolidin-2-one]
ED50 at 6 h [1]: > 43 µmol/kg
IC50 (dopamine D2 receptors): 14 nM
IC50 (5-HT2 receptors): 1.7 nM
ED50 (5-HT2; [3]): 0.078 µmol/kg
ED50 (5-HT2; [4]): 0.13 µmol/kg

CC1(C)C(=O)NC(=O)N1CCN1CCC(c2cn(-c3ccc(F)cc3)c3ccc(Cl)cc23)CC1 [Compound 10, 1-[2-[4-[5-Chloro-1-(4-fluorophenyl)-1H-indol-3-yl]piperidin-1-yl]ethyl]-5,5-dimethylimidazolidin-2,4-dione]
ED50 at 6 h [1]: > 30 µmol/kg
IC50 (dopamine D2 receptors): 20 nM
IC50 (5-HT2 receptors): 12 nM
ED50 (5-HT2; [4]): 0.33 µmol/kg

O=C1NC(O)C(O)N1CCN1CCC(c2cn(-c3ccc(F)cc3)c3ccc(Cl)cc23)CC1 (centres unmarked) [Compound 11, 1-[2-[4-[5-chloro-1-(4-fluorophenyl)-1H-indol-3-yl]piperidin-1-yl]ethyl]-4,5-dihydroxyimidazolidin-2-one]
IC50 (dopamine D2 receptors): 18 nM
IC50 (5-HT2 receptors): 2.5 nM

O=C1NC2(CCCC2)CN1CCN1CCC(c2cn(-c3ccc(F)cc3)c3ccc(Cl)cc23)CC1 [Compound 12, 3-[2-[4-[5-Chloro-1-(4-fluorophenyl)-1H-indol-3-yl]piperidin-1-yl]ethyl]-1,3-diazaspiro[4.4]nonan-2-one]
ED50 at 6 h [1]: > 40 µmol/kg
IC50 (dopamine D2 receptors): 19 nM
IC50 (5-HT2 receptors): 4.7 nM
ED50 (5-HT2; [3]): 0.037 µmol/kg
ED50 (5-HT2; [4]): 0.076 µmol/kg

O=C1NCC2(CCCC2)N1CCN1CCC(c2cn(-c3ccc(F)cc3)c3ccc(Cl)cc23)CC1 [Compound 13, 1-[2-[4-[5-Chloro-1-(4-fluorophenyl)-1H-indol-3-yl]piperidin-1-yl]ethyl]-1,3-diazaspiro[4.4]nonan-2-one]
ED50 at 6 h [1]: > 40 µmol/kg
IC50 (dopamine D2 receptors): 30 nM
IC50 (5-HT2 receptors): 4.5 nM
ED50 (5-HT2; [3]): 0.45 µmol/kg
ED50 (5-HT2; [4]): 0.088 µmol/kg

O=C1NCCN1CCN1CCC(c2cn(-c3ccc(F)cc3)c3ccc(Cl)cc23)CC1 [sertindole, 1-[2-[4-[5-chloro-1-(4-fluorophenyl)-1H-indol-3-yl]piperidin-1-yl]ethyl]-2-imidazolidinone, reference compound]
anxiolytic activity [2]: found to show anxiolytic activity
ED50 at 6 h [1]: > 91 µmol/kg
ED50 (5-HT2; [5]): 0.035 µmol/kg
ED50 (5-HT2; [6]): 0.039 µmol/kg
